The values below come from paper PMC4770715, “LIM kinase inhibitors disrupt mitotic microtubule organization and impair tumor cell proliferation” (Oncotarget, 2015).

Some targets named below: FLT4 (Homo sapiens, UniProt P35916); RIOK1 (Homo sapiens, UniProt Q9BRS2); MET(Y1235D) (Homo sapiens, UniProt P08581, Y1235D); EGFR(G719S) (Homo sapiens, UniProt P00533, G719S); RIPK4 (Homo sapiens, UniProt P57078); CHEK2 (Homo sapiens, UniProt O96017); STK16 (Homo sapiens, UniProt O75716); BMPR1A (Homo sapiens, UniProt P36894); STK35 (Homo sapiens, UniProt Q8TDR2); SGK3 (Homo sapiens, UniProt Q96BR1); FLT1 (Homo sapiens, UniProt P17948); PAK6 (Homo sapiens, UniProt Q9NQU5); BRAF(V600E) (Homo sapiens, UniProt P15056, V600E); HIPK3 (Homo sapiens, UniProt Q9H422); SLK (Homo sapiens, UniProt Q9H2G2); IRAK4 (Homo sapiens, UniProt Q9NWZ3); ITK (Homo sapiens, UniProt Q08881); MAP3K2 (Homo sapiens, UniProt Q9Y2U5).

What all share (assay): biochemical
What all share (design): KINOMEscan active-site competition binding, percent of control (100 = no competition)
Common to all, as to conditions: competition binding, percent control

The target of another assay is T1, ABL1-phosphorylated (Homo sapiens, UniProt P00519).
T1 construct: phosphorylated

The target in a further assay is T2, JNK2 (Homo sapiens, UniProt P45984).
T2 construct: gene MAPK9
T2 sequence (P45984 whole entry): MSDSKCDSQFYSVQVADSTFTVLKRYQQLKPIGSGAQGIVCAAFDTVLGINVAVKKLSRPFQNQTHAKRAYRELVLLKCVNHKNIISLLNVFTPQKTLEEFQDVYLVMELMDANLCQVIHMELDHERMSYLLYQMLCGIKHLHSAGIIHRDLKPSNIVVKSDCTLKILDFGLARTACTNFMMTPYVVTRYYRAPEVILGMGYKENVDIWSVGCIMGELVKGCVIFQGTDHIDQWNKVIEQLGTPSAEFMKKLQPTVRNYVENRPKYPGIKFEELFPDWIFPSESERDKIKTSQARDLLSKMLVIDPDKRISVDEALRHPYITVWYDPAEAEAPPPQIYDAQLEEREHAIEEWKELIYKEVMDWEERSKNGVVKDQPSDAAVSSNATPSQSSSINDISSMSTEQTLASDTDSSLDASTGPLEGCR

The target in assay [1] is T3, ABL1(F317I)-phosphorylated (Homo sapiens, UniProt P00519, F317I).
T3 construct: phosphorylated

In a further assay the target is T4, MLCK (Homo sapiens, UniProt Q32MK0).
T4 construct: gene MYLK3

The next assay concerns the target T5, LKB1 (Homo sapiens, UniProt Q15831).
T5 construct: gene STK11

Sequence of MET(Y1235D) (P08581 whole entry Y1235D): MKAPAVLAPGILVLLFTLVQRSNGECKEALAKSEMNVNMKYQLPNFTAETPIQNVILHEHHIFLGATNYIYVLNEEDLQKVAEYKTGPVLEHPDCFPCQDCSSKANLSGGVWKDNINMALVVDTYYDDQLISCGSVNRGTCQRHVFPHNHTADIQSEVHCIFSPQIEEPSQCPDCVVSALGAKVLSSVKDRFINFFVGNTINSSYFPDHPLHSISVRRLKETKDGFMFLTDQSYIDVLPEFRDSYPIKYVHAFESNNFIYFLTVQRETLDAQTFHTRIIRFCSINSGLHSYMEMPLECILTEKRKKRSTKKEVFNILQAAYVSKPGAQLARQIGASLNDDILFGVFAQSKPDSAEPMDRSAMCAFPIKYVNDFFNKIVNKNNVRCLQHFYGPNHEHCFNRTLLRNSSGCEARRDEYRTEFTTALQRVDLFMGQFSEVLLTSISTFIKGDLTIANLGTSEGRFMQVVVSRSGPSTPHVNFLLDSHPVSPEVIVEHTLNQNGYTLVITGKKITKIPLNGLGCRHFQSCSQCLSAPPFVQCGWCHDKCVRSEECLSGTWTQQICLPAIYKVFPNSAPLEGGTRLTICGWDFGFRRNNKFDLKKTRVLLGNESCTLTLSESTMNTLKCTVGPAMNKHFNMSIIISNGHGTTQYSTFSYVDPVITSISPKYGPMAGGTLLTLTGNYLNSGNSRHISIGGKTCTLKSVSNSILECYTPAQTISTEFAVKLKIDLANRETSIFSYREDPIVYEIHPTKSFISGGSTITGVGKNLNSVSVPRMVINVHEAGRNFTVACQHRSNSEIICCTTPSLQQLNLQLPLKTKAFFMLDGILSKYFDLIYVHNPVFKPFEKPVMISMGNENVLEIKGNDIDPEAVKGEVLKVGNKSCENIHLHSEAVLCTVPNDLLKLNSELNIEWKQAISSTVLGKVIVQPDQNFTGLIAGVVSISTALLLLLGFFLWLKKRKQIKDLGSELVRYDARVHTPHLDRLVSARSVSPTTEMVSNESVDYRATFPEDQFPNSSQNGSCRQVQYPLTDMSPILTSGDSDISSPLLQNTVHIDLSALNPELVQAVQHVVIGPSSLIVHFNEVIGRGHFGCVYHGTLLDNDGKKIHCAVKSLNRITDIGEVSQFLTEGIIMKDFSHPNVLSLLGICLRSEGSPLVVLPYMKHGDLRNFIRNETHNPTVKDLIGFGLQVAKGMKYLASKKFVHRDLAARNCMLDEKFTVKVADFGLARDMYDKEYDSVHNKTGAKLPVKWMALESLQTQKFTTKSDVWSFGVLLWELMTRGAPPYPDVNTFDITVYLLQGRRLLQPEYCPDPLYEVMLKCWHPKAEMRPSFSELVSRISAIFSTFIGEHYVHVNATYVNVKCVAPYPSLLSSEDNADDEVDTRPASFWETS
Sequence of ITK (Q08881 whole entry): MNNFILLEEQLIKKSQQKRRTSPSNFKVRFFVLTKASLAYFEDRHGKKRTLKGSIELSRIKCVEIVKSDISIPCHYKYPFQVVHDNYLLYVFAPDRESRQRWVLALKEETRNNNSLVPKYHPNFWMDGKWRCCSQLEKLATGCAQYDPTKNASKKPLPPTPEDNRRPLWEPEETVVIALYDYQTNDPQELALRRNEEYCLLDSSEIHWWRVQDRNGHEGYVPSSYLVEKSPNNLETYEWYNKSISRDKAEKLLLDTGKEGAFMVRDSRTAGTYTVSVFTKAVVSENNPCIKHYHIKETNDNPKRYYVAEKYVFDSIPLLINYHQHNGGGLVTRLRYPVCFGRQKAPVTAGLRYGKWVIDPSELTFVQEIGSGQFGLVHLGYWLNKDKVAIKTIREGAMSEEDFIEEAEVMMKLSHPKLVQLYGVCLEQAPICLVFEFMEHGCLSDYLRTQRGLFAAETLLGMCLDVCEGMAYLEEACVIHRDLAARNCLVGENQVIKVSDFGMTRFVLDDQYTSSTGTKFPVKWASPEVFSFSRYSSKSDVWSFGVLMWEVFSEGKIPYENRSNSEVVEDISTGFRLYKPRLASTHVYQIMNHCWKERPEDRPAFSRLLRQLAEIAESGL
Sequence of EGFR(G719S) (P00533 whole entry G719S): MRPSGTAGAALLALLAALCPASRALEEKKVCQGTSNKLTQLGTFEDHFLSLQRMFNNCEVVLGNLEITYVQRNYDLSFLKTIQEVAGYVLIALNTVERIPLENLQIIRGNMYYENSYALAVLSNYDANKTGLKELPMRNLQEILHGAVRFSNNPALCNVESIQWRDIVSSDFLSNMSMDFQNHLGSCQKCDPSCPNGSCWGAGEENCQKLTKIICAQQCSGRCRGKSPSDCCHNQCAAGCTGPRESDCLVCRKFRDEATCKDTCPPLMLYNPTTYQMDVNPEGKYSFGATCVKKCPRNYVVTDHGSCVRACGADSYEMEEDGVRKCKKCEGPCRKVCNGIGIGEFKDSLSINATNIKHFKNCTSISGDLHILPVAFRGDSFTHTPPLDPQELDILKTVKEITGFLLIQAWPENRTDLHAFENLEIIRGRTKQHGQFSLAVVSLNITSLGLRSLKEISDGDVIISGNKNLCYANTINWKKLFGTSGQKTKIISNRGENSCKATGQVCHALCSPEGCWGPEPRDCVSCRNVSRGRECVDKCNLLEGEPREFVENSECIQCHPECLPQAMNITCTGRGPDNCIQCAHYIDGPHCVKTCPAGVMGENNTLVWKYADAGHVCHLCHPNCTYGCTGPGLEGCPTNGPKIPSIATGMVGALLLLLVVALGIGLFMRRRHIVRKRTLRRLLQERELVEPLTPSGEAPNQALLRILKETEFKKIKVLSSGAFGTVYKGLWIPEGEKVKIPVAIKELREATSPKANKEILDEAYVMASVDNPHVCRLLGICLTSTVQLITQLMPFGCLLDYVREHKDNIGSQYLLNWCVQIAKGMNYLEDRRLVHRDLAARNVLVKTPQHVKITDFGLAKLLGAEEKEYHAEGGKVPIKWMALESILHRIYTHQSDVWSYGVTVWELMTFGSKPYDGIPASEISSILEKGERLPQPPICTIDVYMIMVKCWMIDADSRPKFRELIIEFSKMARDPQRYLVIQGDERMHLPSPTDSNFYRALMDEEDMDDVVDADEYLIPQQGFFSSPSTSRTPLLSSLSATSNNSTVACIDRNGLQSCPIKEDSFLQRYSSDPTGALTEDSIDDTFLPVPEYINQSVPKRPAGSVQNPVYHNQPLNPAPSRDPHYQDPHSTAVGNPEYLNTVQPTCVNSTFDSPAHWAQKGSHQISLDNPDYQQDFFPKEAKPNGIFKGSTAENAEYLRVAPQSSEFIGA
Sequence of SGK3 (Q96BR1 whole entry): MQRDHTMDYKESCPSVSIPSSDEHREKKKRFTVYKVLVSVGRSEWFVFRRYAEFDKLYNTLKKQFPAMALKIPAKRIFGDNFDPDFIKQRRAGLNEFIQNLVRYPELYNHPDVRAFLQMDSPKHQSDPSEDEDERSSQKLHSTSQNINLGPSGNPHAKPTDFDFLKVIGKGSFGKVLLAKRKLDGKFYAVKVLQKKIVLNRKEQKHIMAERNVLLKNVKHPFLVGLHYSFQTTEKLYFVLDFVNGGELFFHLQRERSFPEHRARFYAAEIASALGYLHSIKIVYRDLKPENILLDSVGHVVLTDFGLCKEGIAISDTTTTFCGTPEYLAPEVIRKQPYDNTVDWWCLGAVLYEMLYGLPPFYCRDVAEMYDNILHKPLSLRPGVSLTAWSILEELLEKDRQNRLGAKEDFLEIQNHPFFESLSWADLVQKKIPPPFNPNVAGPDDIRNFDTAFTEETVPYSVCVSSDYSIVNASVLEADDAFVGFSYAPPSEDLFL
Sequence of BMPR1A (P36894 whole entry): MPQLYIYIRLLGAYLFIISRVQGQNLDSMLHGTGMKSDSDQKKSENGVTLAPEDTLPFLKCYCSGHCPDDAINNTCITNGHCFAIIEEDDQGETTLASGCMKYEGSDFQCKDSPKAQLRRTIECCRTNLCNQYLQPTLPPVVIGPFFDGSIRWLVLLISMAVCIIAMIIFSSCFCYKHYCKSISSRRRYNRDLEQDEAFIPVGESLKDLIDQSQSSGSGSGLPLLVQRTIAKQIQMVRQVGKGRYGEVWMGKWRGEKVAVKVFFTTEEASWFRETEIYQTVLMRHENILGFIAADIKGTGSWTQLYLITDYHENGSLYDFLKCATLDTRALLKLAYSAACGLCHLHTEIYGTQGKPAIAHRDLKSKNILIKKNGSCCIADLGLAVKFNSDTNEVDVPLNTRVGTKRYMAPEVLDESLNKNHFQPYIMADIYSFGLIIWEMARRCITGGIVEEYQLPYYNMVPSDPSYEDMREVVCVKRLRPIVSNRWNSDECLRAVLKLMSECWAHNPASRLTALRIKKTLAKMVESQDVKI
Sequence of STK16 (O75716 whole entry): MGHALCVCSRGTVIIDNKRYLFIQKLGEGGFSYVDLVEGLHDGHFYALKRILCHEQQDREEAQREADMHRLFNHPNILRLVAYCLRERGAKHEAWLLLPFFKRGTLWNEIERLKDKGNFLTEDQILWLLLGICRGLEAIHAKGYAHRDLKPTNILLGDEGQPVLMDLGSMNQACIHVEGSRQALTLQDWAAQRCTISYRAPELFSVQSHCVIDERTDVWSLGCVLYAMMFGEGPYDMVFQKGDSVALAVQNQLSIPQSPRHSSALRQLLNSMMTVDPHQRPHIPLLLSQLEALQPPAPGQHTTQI

Regarding `COc1ccc(-c2cnccc2-c2cnc(NC(=O)C(C)C)s2)c(C(F)(F)F)c1` [CRT0105446, N-{5-[3-(4-Methoxy-2-trifluoromethyl-phenyl)-pyridin-4-yl]-hiazol-2-yl}-isobutyramide], the remaining binding at 10 µM was 61% at FLT4; 97% at RIOK1; 96% at MET(Y1235D); 94% on EGFR(G719S); 100% at RIPK4; 77% at ABL1-phosphorylated. For the same molecule, the remaining binding at 10 µM on CHEK2 was found to be 100%; at STK16 it was 5%; at BMPR1A, 100%; at STK35, 98%; on SGK3, 95%; on FLT1, 80%. For the same molecule, the remaining binding at 10 µM on PAK6 is 93%; on JNK2, 50%; in assay [1], 76%; at MLCK, 90%; at LKB1 it was 100%; at BRAF(V600E), 64%. Further, the remaining binding at 10 µM was found to be 98% at HIPK3; 100% at SLK; 100% at IRAK4; 100% on ITK; 82% on MAP3K2.
Take `Cc1ccc(-c2cnccc2-c2cnc(Nc3ccc(O)cc3)s2)c(Cl)c1` [CRT0105950, 4-{5-[3-(2-Chloro-4-methyl-phenyl)-pyridin-4-yl]-thiazol-2-ylamino}-phenol]: the remaining binding at 10 µM at FLT4 was found to be 26%; at RIOK1, 65%; at MET(Y1235D), 14%; at EGFR(G719S), 75%; on RIPK4 it was 99%; on ABL1-phosphorylated, 70%. For the same molecule, the remaining binding at 10 µM was determined as 55% on CHEK2; 8.7% at STK16; 91% at BMPR1A; 100% on STK35; 72% at SGK3; 21% at FLT1. In addition, the remaining binding at 10 µM on PAK6 is 38%; on JNK2, 30%; in assay [1], 87%; at MLCK, 14%; on LKB1, 79%; on BRAF(V600E), 83%. Also, the remaining binding at 10 µM stood at 69% at HIPK3; 95% on SLK; 80% at IRAK4; 61% at ITK; 15% at MAP3K2.
